Assay results as given in patent US12611443B2, “Methods and compositions related to therapeutic peptides for cancer therapy” (THE UNIVERSITY OF CHICAGO, priority 2018, dated 2026).

Key:
MDA-MB-231 cells = test: Cell viability of MDA-MB-231 cells treated with purified ELANE or ECP; format: cell-based, human; conditions: MDA-MB-231
Experimental: In vitro cell viability assays. […] Luminescence was measured using a Victor X3 luminometer (PerkinElmer).

[1] = tested on: E0771 and B16F10 1° and 2° tumors; test: Abscopal effect studies; format: in vivo, C57BL/6 mice
Experimental: Abscopal effect studies. For the E0771 model, 0.5×10^6 cells were injected into the 4th mammary fat pad of the right ventral side (1° tumor) and 0.4×10^6 cells were injected into the 4th mammary fat pad of the left ventral side (2° tumor) of C57BL/6 mice. Once the 1° tumor reached ˜100 mm^3, ELANE or PMSF-ELANE (11.6 μg/100 μL) were injected IT into the 1° tumor once/day for 5 days, and 1° and 2° tumor volumes were measured by calipers. For the B16F10 model, 0.5×10^6 cells were injected into the flank (1° tumor). 7 days later, 0.2×10^6 cells were injected into the lateral tail vein to create 2° lung metastases. Once the 1° tumor reached ˜100 mm^3, ELANE or PMSF-ELANE (11.6 μg/100 μL) were injected IT into the 1° tumor once/day for 5 days, and the 1° tumor volume was measured by calipers. Lungs were excised 10 days after the final ELANE treatment, and 2° lung metastases were counted. For CD8^+ T cell depletion, anti-mouse CD8α (clone 2.43, Bio X Cells) or rat IgG2b (isotype control, Bio X Cells) were injected IV (200 μg/injection) 3 days before the first ELANE treatment, and once/week after the last ELANE treatment. CD8^+ T cell depletion was confirmed by flow cytometry.
For the ‘spillover control’, 0.5×10^6 E0771 cells were injected into the 4th mammary fat pad of the left ventral side (2° tumor). ELANE or PMSF-ELANE (11.6 μg/100 μL) were injected into the tumor-free 4th mammary fat pad of the right ventral side pad once/day for 5 days, and 2° tumor volume was measured by calipers.
For the ‘specificity control’, 0.5×10^6 E0771 cells were injected into the into the 4th mammary fat pad of the right ventral side (1° tumor) and 7 days later, 1×10^6B16F10 cells were injected into the flank (2° tumor). Once the 1° tumor reached ˜100 mm^3, ELANE or PMSF-ELANE (11.6 μg/100 μL) were injected IT into the 1° tumor once/day for 5 days, and 1° and 2° tumor volumes were measured by calipers.

[2] = Assessment of potential side-effects in tumor-free C57BL/6 mice; format: in vivo
Experimental: Assessment of potential side-effects. ELANE or PMSF-ELANE (11.6 μg/100 μL) were injected into the 4th mammary fat pad of the right ventral side pad of tumor-free C57BL/6 mice once/day for 5 days. One day after the last injection, mice were studied for potential side-effects. Body weight and spleen weight were measured. Apoptosis at the injection site was studied by isolating, fixing, and staining mammary adipose tissue for TUNEL, cCASP3, and cPARP using identical methods described for tumors above. Mammary adipose tissue immune cell populations at the injection site were determined by flow cytometry using identical methods described for tumors above. Liver function was assessed by measuring plasma ALT activity with the Alanine Transaminase Colorimetric Activity Assays Kit (Cayman Chemical).

For “ELANE: neutrophil elastase, a serine protease released by human PMNs”, the “cell viability, purified protein” value (MDA-MB-231 cells) was “killed MDA-MB-231 cells in a dose-dependent manner”, the “number of 2° lung metastases” value ([1]; 1° B16F10 tumor treated, 12 μg/day for 5 days) was “lowered the number of lung metastases” and the “tumorigenesis in 2° B16F10 tumor (specificity control)” value ([1]; 1° E0771 tumor treated) was “did not impact tumorigenesis in a 2° B16F10 tumor”. For the same substance, the “tumorigenesis at 1° and 2° E0771 tumors” value ([1]; 1° tumor treated, 12 μg/day for 5 days) was “attenuated tumorigenesis at both sites”, the “abscopal effect after depleting CD8+ T cells” value ([1]; both models) was “attenuated ELANE's abscopal effect in both models” and the “tumorigenesis after injection into contralateral site” value ([1]; opposite the tumor, tumor-bearing mice) was “failed to attenuate tumorigenesis”. The side effects ([2]; ELANE 12 μg/day into mammary fat pads) was “did not produce evident side effects” and the “apoptosis at injection site” value ([2]; ELANE injected into tumor-free C57BL/6 mice) was “no evidence of apoptosis was found”.
